Source: the supplement of paper PMC10307832

Columns and labels:
Assay in all cases: relative viability (nuclei count vs DMSO), 5 days (fraction); higher = more cells survive
CUDC-101 + Decitabine = compound: C#Cc1cccc(Nc2ncnc3cc(OC)c(OCCCCCCC(=O)NO)cc23)c1 [CUDC-101] + Nc1ncn([C@H]2C[C@H](O)[C@@H](CO)O2)c(=O)n1 [Decitabine] (partner 2 µM)
Method in brief: (§1)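 Five library-drug doses in √10 steps were combined with a fixed anchor-drug dose, or a single drug was given alone, by pin tool to lung cancer cell lines in 1536-well plates the day after seeding. Nuclei were stained and counted after 5 days. Relative viability is the nuclei count in treated wells over that in vehicle wells, taken as the median of duplicate plates.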

Vandetanib + Pemetrexed = compound: COc1cc2/c(=N/c3ccc(Br)cc3F)nc[nH]c2cc1OCC1CCN(C)CC1 [Vandetanib] + Nc1nc2[nH]cc(CCc3ccc(C(=O)N[C@@H](CCC(=O)O)C(=O)O)cc3)c2c(=O)[nH]1 [Pemetrexed] (partner 0.2 µM)
Method in brief: as §1

CUDC-101 + Trametinib = compound: C#Cc1cccc(Nc2ncnc3cc(OC)c(OCCCCCCC(=O)NO)cc23)c1 [CUDC-101] + CC(=O)Nc1cccc(-n2c(=O)n(C3CC3)c(=O)c3c(Nc4ccc(I)cc4F)n(C)c(=O)c(C)c32)c1 [Trametinib] (partner 0.02 µM)
Method in brief: as §1

CUDC-101 + Phenformin = compound: C#Cc1cccc(Nc2ncnc3cc(OC)c(OCCCCCCC(=O)NO)cc23)c1 [CUDC-101] + N=C(N)NC(=N)NCCc1ccccc1 [Phenformin] (partner 250 µM)
Method in brief: as §1

UMC-11
relative viability (CUDC-101 + Decitabine; first compound 0.01 µM): 0.761
relative viability (CUDC-101 + Decitabine; first compound 0.03162 µM): 0.477
relative viability (CUDC-101 + Decitabine; first compound 0.1 µM): 0.601
relative viability (CUDC-101 + Decitabine; first compound 0.3162 µM): 0.462
relative viability (CUDC-101 + Decitabine; first compound 1 µM): 0.221
relative viability (Vandetanib + Pemetrexed; first compound 0.02 µM): 0.764
relative viability (Vandetanib + Pemetrexed; first compound 0.06325 µM): 0.799
relative viability (Vandetanib + Pemetrexed; first compound 0.2 µM): 0.801
relative viability (Vandetanib + Pemetrexed; first compound 0.6325 µM): 0.721
relative viability (Vandetanib + Pemetrexed; first compound 2 µM): 0.667
relative viability (CUDC-101 + Trametinib; first compound 0.01 µM): 0.727
relative viability (CUDC-101 + Trametinib; first compound 0.03162 µM): 0.761
relative viability (CUDC-101 + Trametinib; first compound 0.1 µM): 0.578
relative viability (CUDC-101 + Trametinib; first compound 0.3162 µM): 0.399
relative viability (CUDC-101 + Trametinib; first compound 1 µM): 0.127
relative viability (CUDC-101 + Phenformin; first compound 0.01 µM): 0.337
relative viability (CUDC-101 + Phenformin; first compound 0.03162 µM): 0.285
relative viability (CUDC-101 + Phenformin; first compound 0.1 µM): 0.262
relative viability (CUDC-101 + Phenformin; first compound 0.3162 µM): 0.167
relative viability (CUDC-101 + Phenformin; first compound 1 µM): 0.102
